Assay [1] addresses KAT2A (Homo sapiens, UniProt Q92830). The assay is described as follows: KAT2A degradation, Western Blot (Jess), NCI-H1048 cells. It counts as cell-based. Details: degrader, Western blot (Jess). Conditions: NCI-H1048 cells, KAT2A, 24 h, Western Blot, vs DMSO; read-out: KAT2A NCI-H1048 DC50. The procedure, abridged: (§1)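 NCI-H1048 cells grown in HITES medium with 5% FBS were treated with compounds for 24 h at 37° C. Lysates were run by capillary Western (Jess) with KAT2A or KAT2B antibodies and chemiluminescent detection. DC50 derived from percent protein reduction versus DMSO control.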
On the technique in general: In western blotting, separated proteins are transferred to a membrane and probed.

The target in assay [2] is KAT2B (Homo sapiens, UniProt Q92831). Put plainly: KAT2B degradation, Western Blot (Jess), NCI-H1048 cells. Conditions: NCI-H1048 cells, KAT2B, 24 h, Western Blot, vs DMSO; read-out: KAT2B NCI-H1048 DC50. It counts as cell-based. Details: degrader, Western blot (Jess). The essentials:
as §1

Here are results for 14 molecules from US20260306640A1, “TECHNOLOGIES TARGETING CELL STATES” (Auron Therapeutics, Inc., priority 2023, published 2026).

Sequence of KAT2A (Q92830 whole entry): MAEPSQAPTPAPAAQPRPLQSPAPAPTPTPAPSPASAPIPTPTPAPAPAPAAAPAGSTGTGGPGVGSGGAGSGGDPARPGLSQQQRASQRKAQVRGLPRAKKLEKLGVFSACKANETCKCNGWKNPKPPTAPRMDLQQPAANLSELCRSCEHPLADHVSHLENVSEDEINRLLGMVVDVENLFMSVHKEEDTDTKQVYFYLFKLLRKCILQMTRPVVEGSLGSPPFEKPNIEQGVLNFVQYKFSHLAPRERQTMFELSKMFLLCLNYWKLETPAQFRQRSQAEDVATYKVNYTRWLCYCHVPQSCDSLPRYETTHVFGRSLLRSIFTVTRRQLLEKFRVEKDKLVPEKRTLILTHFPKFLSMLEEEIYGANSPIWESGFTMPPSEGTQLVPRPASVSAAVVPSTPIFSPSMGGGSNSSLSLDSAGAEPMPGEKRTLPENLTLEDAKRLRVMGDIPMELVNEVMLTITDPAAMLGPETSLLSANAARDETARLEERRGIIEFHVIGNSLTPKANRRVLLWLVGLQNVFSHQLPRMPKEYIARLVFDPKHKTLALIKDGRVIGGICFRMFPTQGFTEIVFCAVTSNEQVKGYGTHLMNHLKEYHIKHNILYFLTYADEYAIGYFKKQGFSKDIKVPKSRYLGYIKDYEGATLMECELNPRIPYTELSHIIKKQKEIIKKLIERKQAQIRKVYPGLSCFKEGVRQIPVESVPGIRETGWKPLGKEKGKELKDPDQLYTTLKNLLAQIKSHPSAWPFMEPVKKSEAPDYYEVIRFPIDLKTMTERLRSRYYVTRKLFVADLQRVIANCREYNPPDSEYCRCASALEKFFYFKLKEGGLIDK
Sequence of KAT2B (Q92831 whole entry): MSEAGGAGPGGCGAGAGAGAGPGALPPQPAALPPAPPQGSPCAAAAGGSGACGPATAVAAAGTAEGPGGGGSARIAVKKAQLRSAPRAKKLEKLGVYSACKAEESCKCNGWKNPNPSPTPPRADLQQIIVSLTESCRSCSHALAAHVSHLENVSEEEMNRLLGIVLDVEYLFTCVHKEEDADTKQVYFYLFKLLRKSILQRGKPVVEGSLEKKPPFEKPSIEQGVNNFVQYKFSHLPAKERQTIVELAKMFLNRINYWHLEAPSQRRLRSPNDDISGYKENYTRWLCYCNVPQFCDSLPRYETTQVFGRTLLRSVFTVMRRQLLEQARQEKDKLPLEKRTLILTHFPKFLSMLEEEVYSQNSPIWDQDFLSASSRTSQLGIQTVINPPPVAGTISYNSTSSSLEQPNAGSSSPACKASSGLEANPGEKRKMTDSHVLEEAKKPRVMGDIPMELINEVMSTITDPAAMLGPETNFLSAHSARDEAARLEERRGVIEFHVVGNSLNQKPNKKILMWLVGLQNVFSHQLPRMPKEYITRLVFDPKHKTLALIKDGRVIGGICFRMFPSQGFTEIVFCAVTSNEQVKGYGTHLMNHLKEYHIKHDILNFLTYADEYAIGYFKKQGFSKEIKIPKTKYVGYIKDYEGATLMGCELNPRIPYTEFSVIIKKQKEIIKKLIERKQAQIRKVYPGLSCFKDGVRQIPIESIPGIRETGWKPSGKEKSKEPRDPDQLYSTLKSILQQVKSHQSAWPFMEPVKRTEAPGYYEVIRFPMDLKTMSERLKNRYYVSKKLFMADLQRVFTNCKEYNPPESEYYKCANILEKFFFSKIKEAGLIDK

As to `Cc1cc(N2CCC3(CCN(c4ccc([C@H]5C[C@@H](Nc6cnn(C)c(=O)c6Br)CN(C)C5)cc4)CC3)CC2)ccc1C1CCC(=O)NC1=O` (stereo partly drawn) [Compound 436, 3-(4-(9-(4-((3R,5R)-5-((5-bromo-1-methyl-6-oxo-1,6-dihydropyridazin-4-yl)amino)-1-methylpiperidin-3-yl)phenyl)-3,9-diazaspiro[5.5]undecan-3-yl)-2-methylphenyl)piperidine-2,6-dione], the DC50 is less than 1 nM in assay [1] and 1 to 30 nM in assay [2].

As to `CN1C[C@H](Nc2ccn(C)c(=O)c2Cl)C[C@H](c2ccc(C(=O)N3CCC4(CCC(c5ccc(C6CCC(=O)NC6=O)cc5)CC4)CC3)cc2)C1` (stereo partly shown) [Compound 314], the DC50 is less than 1 nM in assay [1] and 1 to 30 nM in assay [2].

As to `CN1C[C@H](Nc2cnn(C)c(=O)c2Cl)C[C@H](c2ccc(N3CCC4(CC3)CCN(c3cccc(CN5CCC(=O)NC5=O)c3)CC4)cc2)C1` [Compound 401], the DC50 in assay [1] was less than 1 nM; in assay [2], greater than 30 nM.

Turning to `CN1C[C@H](Nc2cnn(C)c(=O)c2Cl)C[C@H](c2ccc(C(=O)N3CCC4(CCC(c5ccc(C6CCC(=O)NC6=O)cc5)CC4)CC3)cc2)C1` (stereo partly shown) [Compound 324], the DC50 in assay [1] and in assay [2] was less than 1 nM in each case.

For `Cc1cc(N2CCN(C3CCN(C(=O)c4ccc([C@H]5C[C@@H](Nc6cnn(C)c(=O)c6Br)CN(C)C5)cc4)CC3)CC2)ccc1C1CCC(=O)NC1=O` (stereo partly shown) [Compound 312], the values for the DC50 in assay [1] and in assay [2] were less than 1 nM and greater than 30 nM, respectively.

For `CN1C[C@H](Nc2cnn(C)c(=O)c2Br)C[C@H](c2ccc(CN3CCC(c4ccc5c(c4)C(=O)N(C4CCC(=O)NC4=O)C5=O)C(F)(F)C3)cc2)C1` (stereo partly shown) [Compound 391], the results for the 50% degradation concentration (DC50) in assay [1] and in assay [2] were greater than 30 nM and less than 1 nM, respectively.

In the case of `Cc1cc(N2CC3(CCN(C(=O)c4ccc([C@H]5C[C@@H](Nc6cnn(C)c(=O)c6Br)CN(C)C5)cc4)CC3)C2)ccc1C1CCC(=O)NC1=O` (stereo partly shown) [Compound 291], the DC50 in assay [1] was less than 1 nM; in assay [2], 1 to 30 nM.

Regarding `CN1C[C@H](Nc2cnn(C)c(=O)c2Br)C[C@H](c2ccc(C(=O)N3CCC4(CCC(c5ccc(C6CCC(=O)NC6=O)cc5)CC4)CC3)cc2)C1` (stereo partly shown) [Compound 323], the DC50 in assay [1] and in assay [2] was less than 1 nM each time.

As for `CN1C[C@H](Nc2cnn(C)c(=O)c2Br)C[C@H](c2ccc(C(=O)N3CC(c4cccc(C5CCC(=O)NC5=O)c4)C3)cc2)C1` (stereo partly shown) [Compound 191], the DC50 in assay [1] was 1 to 30 nM; in assay [2], greater than 30 nM.

Regarding `Cc1cc(N2CCC(N3CCN(C(=O)c4ccc([C@H]5C[C@@H](Nc6cnn(C)c(=O)c6Br)CN(C)C5)cc4)CC3)CC2)ccc1C1CCC(=O)NC1=O` (stereo partly shown) [Compound 309], the figures for the DC50 in assay [1] and in assay [2] were less than 1 nM and greater than 30 nM, respectively.

For the molecule `Cn1ncc(N[C@@H]2C[C@H](c3ccc(C(=O)N4CCC5(CC4)CCN(c4ccc(C6CCC(=O)NC6=O)cc4)CC5)cc3)CN(CC3CC3)C2)c(Br)c1=O` (stereo partly drawn) [Compound 425, 3-[4-[3-[4-[(3R,5R)-5-[(5-bromo-1-methyl-6-oxo-pyridazin-4-yl)amino]-1-(cyclopropylmethyl)-3-piperidyl]benzoyl]-3,9-diazaspiro[5.5]undecan-9-yl]phenyl]piperidine-2,6-dione], the half-maximal degradation concentration (DC50) in assay [1] and in assay [2] was less than 1 nM throughout.

Consider `CN1C[C@H](Nc2cnn(C)c(=O)c2Br)C[C@H](c2ccc(C(=O)N3CCC(C#Cc4ccc(C5CCC(=O)NC5=O)cc4)CC3)cc2)C1` (stereo partly shown) [Compound 334], for which the values for the DC50 in assay [1] and in assay [2] were less than 1 nM and 1 to 30 nM, respectively.

Regarding `CN1C[C@H](Nc2cnn(C)c(=O)c2Br)C[C@H](c2ccc(CN3CC(c4ccc(C5CCC(=O)NC5=O)cc4)C3)cc2)C1` (stereo partly shown) [Compound 195], the DC50 in assay [1] is 1 to 30 nM; in assay [2], greater than 30 nM.

Consider `CN1C[C@H](Nc2cnn(C)c(=O)c2Cl)C[C@H](c2ccc(CN3CCC4(CC3)CCN(c3ccc(C5CCC(=O)NC5=O)c(F)c3)CC4)cc2)C1` (stereo partly shown) [Compound 340], for which the DC50 in assay [1] and in assay [2] was less than 1 nM each time.

One may read the DC50 as the midpoint of the concentration-degradation curve.
